In patent US10457654B2 (GENENTECH, INC., priority 2017, dated 2019):
Structures can show the parent of a compound that is named as a salt.

What was measured:
hNav1.7 [1] = target: T1, hNav1.7 (Homo sapiens (Human), UniProt Q15858); test: Patch voltage clamp electrophysiology assay (EP), Syncropatch 384PE, CHO cells expressing Nav1.7; assay type: cell-based; settings: read-out: EP_SP hNav1.7 (Ex. 243B) IC50
Protocol: Electrophysiological Assay (EP) (In Vitro Assay)
The following voltage clamp electrophysiology studies were performed on representative compounds using cells heterologously expressing Nav1.7 or Nav1.5 channels. cDNAs for Nav1.7 (NM_002977) and Nav1.5 (AC137587) were stably expressed in Chinese Hamstr Ovary (CHO) cells and CHL (Chinese Hamster Lung) cells respectively. […] Internal solution consists of (in mM): 110 […], 10 […], 20 EGTA, and 10 Hepes (pH adjusted to 7.2); and external solution contains (in mM): 60 NMDG, 80 NaCl, 4 KCl, 1 MgCl2, 2 CaCl2, 2 D-Glucose monohydrate, 10 Hepes (pH adjusted to 7.4 with NaOH).
The chip is moved into the measuring head and the instrument primes the chip with external and internal solutions. […] cells are added to the chip from a cell hotel, and a negative pressure of −50 mBar is applied to form a seal. Following treatment with seal enhancer solution and wash-off with external solution, negative pressure of −250 mbar is applied for 1 second to achieve the whole-cell configuration, followed by three washing steps in external solution. 20 μl of compounds is added to 40 μl in each well (1:3 dilution of compounds), and after mixing, 20 μl is removed so the volume is retained at 40 μl.
For voltage protocol, an holding potential of −50 mV is applied during the whole experiment. A depolarizing step is applied to −10 mV for 10 ms, followed by a hyperpolarization step to −150 mV for 20 ms to allow channel recovery from inactivation. A second depolarizing step is applied from −150 mV to −10 mV for 10 ms, where currents were measured to derive blocking effects of compounds. Inhibition is determined based on 7.5 min of compound incubation.
Target sequence in this assay (Q15858 other isoform, or with tags, fused parts or gaps): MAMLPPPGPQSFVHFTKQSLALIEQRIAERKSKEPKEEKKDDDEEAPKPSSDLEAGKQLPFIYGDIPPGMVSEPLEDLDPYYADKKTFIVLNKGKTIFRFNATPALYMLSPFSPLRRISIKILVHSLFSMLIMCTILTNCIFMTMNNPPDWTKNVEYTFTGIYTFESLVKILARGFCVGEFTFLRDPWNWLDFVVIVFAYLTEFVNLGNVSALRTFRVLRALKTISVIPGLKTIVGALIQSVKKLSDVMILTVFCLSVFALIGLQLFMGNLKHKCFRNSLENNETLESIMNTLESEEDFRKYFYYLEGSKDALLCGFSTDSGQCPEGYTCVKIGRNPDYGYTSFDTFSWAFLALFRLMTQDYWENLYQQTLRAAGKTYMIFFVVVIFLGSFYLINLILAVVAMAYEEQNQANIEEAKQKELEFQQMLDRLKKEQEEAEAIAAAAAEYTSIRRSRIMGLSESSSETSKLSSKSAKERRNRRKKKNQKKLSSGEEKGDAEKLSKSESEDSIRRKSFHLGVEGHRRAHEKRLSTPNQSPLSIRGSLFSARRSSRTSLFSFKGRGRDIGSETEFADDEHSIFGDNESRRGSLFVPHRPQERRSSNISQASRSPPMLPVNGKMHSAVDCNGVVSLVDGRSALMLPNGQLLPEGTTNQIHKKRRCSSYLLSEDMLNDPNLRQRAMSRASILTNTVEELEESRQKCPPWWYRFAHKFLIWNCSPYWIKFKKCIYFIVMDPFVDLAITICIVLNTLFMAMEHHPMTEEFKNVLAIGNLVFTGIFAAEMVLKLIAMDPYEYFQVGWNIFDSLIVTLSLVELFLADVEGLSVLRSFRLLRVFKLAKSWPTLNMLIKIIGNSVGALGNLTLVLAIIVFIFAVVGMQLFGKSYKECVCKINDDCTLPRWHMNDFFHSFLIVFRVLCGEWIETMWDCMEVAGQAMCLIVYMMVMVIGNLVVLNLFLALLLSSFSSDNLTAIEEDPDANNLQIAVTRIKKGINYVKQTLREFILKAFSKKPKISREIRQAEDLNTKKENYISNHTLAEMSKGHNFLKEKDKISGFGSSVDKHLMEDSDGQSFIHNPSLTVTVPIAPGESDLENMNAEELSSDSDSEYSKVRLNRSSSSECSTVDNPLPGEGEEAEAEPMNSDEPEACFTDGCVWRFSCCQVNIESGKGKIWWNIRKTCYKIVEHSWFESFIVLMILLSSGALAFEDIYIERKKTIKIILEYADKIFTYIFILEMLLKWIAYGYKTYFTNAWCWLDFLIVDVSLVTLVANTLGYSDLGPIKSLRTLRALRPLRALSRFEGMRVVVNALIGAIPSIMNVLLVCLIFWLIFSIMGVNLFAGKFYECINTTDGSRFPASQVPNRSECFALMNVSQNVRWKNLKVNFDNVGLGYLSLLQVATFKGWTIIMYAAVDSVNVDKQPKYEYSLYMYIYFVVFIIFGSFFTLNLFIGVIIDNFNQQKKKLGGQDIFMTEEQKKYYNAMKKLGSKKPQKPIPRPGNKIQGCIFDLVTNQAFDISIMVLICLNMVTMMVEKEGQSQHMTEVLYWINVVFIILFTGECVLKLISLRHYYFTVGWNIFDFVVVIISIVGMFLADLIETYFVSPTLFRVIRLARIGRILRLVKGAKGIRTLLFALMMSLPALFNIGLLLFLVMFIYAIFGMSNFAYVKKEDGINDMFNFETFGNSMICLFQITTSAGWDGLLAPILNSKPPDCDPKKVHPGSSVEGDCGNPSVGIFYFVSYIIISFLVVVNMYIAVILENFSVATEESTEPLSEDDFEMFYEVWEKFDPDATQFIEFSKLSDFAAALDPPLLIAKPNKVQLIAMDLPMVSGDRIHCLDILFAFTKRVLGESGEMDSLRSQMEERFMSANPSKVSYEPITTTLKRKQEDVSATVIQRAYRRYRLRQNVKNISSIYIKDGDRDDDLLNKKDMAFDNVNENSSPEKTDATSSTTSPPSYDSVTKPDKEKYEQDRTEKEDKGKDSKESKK

hNav1.7 [2] = target: T1, hNav1.7; test: Tritiated compound binding to membranes from cells expressing hNav1.7 and the β1 subunit, modified protocol (LBA, Ex. 243B); settings: 300 pM [3H]compound, room temperature, read-out: Nav1.7 LBA (Ex. 243B) IC50
Target sequence in this assay (Q15858 whole entry, looked up): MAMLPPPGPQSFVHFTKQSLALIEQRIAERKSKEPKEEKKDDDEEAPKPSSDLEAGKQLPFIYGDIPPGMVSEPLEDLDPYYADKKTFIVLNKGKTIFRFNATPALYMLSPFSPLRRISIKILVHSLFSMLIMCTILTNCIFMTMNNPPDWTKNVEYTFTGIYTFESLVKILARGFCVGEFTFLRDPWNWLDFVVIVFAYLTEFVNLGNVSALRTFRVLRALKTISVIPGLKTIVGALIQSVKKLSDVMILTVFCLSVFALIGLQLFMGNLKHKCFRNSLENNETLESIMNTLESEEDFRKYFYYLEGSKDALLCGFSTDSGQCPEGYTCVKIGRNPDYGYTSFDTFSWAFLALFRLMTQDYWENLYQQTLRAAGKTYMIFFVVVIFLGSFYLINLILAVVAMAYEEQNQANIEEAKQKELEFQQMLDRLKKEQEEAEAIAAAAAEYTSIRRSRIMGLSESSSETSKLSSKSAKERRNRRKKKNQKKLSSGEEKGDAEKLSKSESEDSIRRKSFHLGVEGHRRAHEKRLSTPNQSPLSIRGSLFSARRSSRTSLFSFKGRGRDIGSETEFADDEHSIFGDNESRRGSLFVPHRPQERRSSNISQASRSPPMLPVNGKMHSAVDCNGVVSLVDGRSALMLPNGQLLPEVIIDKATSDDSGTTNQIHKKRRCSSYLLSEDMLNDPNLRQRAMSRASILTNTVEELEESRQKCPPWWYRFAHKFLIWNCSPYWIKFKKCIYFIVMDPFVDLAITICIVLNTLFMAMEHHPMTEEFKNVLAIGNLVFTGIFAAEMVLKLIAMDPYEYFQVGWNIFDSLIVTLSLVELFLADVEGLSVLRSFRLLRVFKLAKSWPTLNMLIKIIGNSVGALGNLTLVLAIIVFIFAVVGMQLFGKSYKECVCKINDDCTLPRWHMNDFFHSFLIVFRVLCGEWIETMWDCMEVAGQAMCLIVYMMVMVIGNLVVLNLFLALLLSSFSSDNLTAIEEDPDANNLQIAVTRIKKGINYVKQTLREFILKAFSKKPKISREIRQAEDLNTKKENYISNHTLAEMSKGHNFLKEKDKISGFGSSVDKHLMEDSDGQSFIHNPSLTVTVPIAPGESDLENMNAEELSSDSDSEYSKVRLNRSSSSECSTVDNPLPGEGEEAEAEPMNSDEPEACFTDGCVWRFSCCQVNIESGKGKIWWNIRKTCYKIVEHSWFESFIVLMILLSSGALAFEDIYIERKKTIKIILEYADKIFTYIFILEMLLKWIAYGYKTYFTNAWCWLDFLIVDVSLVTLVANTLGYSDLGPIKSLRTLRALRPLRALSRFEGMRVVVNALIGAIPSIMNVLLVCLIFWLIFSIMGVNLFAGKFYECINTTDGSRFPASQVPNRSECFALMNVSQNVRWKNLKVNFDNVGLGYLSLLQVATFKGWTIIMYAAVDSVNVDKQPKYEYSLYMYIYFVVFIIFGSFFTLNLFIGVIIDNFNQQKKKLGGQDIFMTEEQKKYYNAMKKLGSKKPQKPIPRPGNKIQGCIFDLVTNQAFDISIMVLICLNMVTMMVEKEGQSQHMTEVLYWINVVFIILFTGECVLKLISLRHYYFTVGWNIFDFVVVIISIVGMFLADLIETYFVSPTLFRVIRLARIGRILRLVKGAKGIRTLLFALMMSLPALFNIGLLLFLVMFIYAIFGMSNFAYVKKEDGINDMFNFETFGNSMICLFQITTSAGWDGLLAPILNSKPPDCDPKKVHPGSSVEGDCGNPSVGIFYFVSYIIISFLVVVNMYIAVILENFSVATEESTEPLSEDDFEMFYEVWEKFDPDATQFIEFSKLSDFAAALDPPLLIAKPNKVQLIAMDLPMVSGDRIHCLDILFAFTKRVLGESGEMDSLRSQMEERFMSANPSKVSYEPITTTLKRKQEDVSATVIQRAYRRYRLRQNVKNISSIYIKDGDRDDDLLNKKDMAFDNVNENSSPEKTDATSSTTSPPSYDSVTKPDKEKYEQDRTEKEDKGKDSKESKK
Target sequence in this assay (Q07699 whole entry partner, looked up): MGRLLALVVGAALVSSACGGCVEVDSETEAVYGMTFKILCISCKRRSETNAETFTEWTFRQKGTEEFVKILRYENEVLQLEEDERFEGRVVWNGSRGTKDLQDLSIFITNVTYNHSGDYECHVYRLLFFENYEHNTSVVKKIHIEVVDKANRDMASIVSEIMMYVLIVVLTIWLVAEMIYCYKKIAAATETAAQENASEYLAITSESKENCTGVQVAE

[3] = holding potential -50 mV, […] compound incubation

SMILES: CN(C)[C@H]1C[C@@H](c2cccc(C(F)(F)F)c2)CC[C@@H]1Nc1cc(F)c(S(=O)(=O)Nc2ccncn2)cc1F [Example 220, 4-(((1S,2S,4S)-2-(Dimethylamino)-4-(3-(trifluoromethyl)phenyl)cyclohexyl)amino)-2,5-difluoro-N-(pyrimidin-4-yl)benzenesulfonamide]
- IC50 (hNav1.7 [1]; [3]): 0.418 nM

SMILES: CN(C)[C@H]1C[C@@H](C(F)(F)F)CC[C@@H]1Nc1cc(F)c(S(=O)(=O)Nc2ccncn2)cc1Cl [Example 112, 5-chloro-4-(((1S,2S,4S)-2-(dimethylamino)-4-(trifluoromethyl)cyclohexyl)amino)-2-fluoro-N-(pyrimidin-4-yl)benzenesulfonamide]
- IC50 (hNav1.7 [2]): 229 nM
- IC50 (hNav1.7 [1]; [3]): 15.1 nM

SMILES: CN(C)[C@H]1CCCC[C@@H]1Oc1cc(F)c(S(=O)(=O)Nc2cccc(F)n2)cc1C1CC1 [Example 114, 5-Cyclopropyl-4-(((1S,2S)-2-(dimethylamino)cyclohexyl)oxy)-2-fluoro-N-(6-fluoropyridin-2-yl)benzenesulfonamide formate]
- IC50 (hNav1.7 [2]): 264 nM
- IC50 (hNav1.7 [1]; [3]): 33.1 nM

SMILES: CN(C)[C@@H]1C[C@H]2C[C@H]2C[C@H]1Nc1cc(F)c(S(=O)(=O)Nc2nccs2)cc1Cl [Example 217, 5-Chloro-4-(((1S,3R,4R,6R)-4-(dimethylamino)bicyclo[4.1.0]heptan-3-yl)amino)-2-fluoro-N-(thiazol-2-yl)benzenesulfonamide]
- IC50 (hNav1.7 [2]): 1190 nM
- IC50 (hNav1.7 [1]; [3]): 112 nM

SMILES: CN(C(=O)C(C)(C)N(C)C)[C@H]1CCCC[C@@H]1Nc1cc(F)c(S(=O)(=O)Nc2nccs2)cc1Cl [Example 198, N-((1S,2S)-2-((2-Chloro-5-fluoro-4-(N-(thiazol-2-yl)sulfamoyl)phenyl)amino)-cyclohexyl)-2-(dimethylamino)-N,2-dimethylpropanamide]
- IC50 (hNav1.7 [2]): 817 nM
- IC50 (hNav1.7 [1]; [3]): 65.8 nM

SMILES: CC1(O)CCN([C@H]2CCCC[C@@H]2Nc2cc(F)c(S(=O)(=O)Nc3nccs3)cc2Cl)CC1 [Example 150, 5-chloro-2-fluoro-4-(((1S,2S)-2-(4-hydroxy-4-methylpiperidin-1-yl)cyclohexyl)amino)-N-(thiazol-2-yl)benzenesulfonamide formate]
- IC50 (hNav1.7 [2]): 1410 nM
- IC50 (hNav1.7 [1]; [3]): 103 nM

SMILES: CN(C)[C@H]1CCC(F)C[C@@H]1Nc1cc(F)c(S(=O)(=O)Nc2nccs2)cc1Cl (stereo partly drawn) [Example 191, 5-chloro-4-(((1S,2S)-2-(dimethylamino)-5-fluorocyclohexyl)amino)-2-fluoro-N-(thiazol-2-yl)benzenesulfonamide formate]
- IC50 (hNav1.7 [2]): 777 nM
- IC50 (hNav1.7 [1]; [3]): 39.4 nM

SMILES: CC(=O)N1CC(N(C)[C@H]2CCCC[C@@H]2Nc2cc(F)c(S(=O)(=O)Nc3nccs3)cc2Cl)C1 [Example 148, 4-(((1S,2S)-2-((1-Acetylazetidin-3-yl)(methyl)amino)cyclohexyl)amino)-5-chloro-2-fluoro-N-(thiazol-2-yl)benzenesulfonamide]
- IC50 (hNav1.7 [2]): 305 nM
- IC50 (hNav1.7 [1]; [3]): 25.3 nM

SMILES: O=S(=O)(Nc1nccs1)c1cc(Cl)c(N[C@H]2CCCC[C@@H]2N2CCC(F)CC2)cc1F [Example 113, 5-chloro-2-fluoro-4-(((1S,2S)-2-(4-fluoropiperidin-1-yl)cyclohexyl)amino)-N-(thiazol-2-yl)benzenesulfonamide]
- IC50 (hNav1.7 [2]): 185 nM
- IC50 (hNav1.7 [1]; [3]): 11.7 nM

SMILES: CN([C@H]1C[C@@H](O)C1)[C@H]1CCCC[C@@H]1Nc1cc(F)c(S(=O)(=O)Nc2nccs2)cc1Cl [Example 156, 5-Chloro-2-fluoro-4-(((1S,2S)-2-((cis-3-hydroxycyclobutyl)(methyl)amino)cyclohexyl)amino)-N-(thiazol-2-yl)benzenesulfonamide formate]
- IC50 (hNav1.7 [2]): 316 nM
- IC50 (hNav1.7 [1]; [3]): 18.9 nM

SMILES: CN(C)[C@H]1C[C@@H](c2cccc(C(F)(F)F)c2)CC[C@@H]1Nc1cc(F)c(S(=O)(=O)Nc2ccon2)cc1Cl [Example 228, 5-chloro-4-(((1S,2S,4S)-2-(dimethylamino)-4-(3-(trifluoromethyl)phenyl)cyclohexyl)amino)-2-fluoro-N-(isoxazol-3-yl)benzenesulfonamide]
- IC50 (hNav1.7 [2]): 5.78 nM
- IC50 (hNav1.7 [1]; [3]): 0.846 nM

SMILES: CN(CC(C)(C)O)[C@H]1CCCC[C@@H]1Nc1cc(F)c(S(=O)(=O)Nc2nccs2)cc1Cl [Example 116, 5-Chloro-2-fluoro-4-(((1S,2S)-2-((2-hydroxy-2-methylpropyl)(methyl)amino)cyclohexyl)amino)-N-(thiazol-2-yl)benzenesulfonamide formate]
- IC50 (hNav1.7 [2]): 307 nM
- IC50 (hNav1.7 [1]; [3]): 18.2 nM

SMILES: O=S(=O)(Nc1nccs1)c1cc(Cl)c(N[C@H]2CCCC[C@@H]2N2CC3CC3C2)cc1F (stereo partly drawn) [Example 160, 4-(((1S,2S)-2-(3-azabicyclo[3.1.0]hexan-3-yl)cyclohexyl)amino)-5-chloro-2-fluoro-N-(thiazol-2-yl)benzenesulfonamide]
- IC50 (hNav1.7 [2]): 20.3 nM
- IC50 (hNav1.7 [1]): 2.27 nM

SMILES: CN(CCC#N)[C@H]1CCCC[C@@H]1Nc1cc(F)c(S(=O)(=O)Nc2nccs2)cc1Cl [Example 125, 5-Chloro-4-(((1S,2S)-2-((2-cyanoethyl)(methyl)amino)cyclohexyl)amino)-2-fluoro-N-(thiazol-2-yl)benzenesulfonamide]
- IC50 (hNav1.7 [2]): 204 nM
- IC50 (hNav1.7 [1]; [3]): 7.53 nM

SMILES: CN(C)[C@H]1C[C@H]2[C@@H](C[C@@H]1Nc1cc(F)c(S(=O)(=O)Nc3nccs3)cc1Cl)C2(Cl)Cl [Example 196, 5-Chloro-4-(((1R,3S,4S,6S)-7,7-dichloro-4-(dimethylamino)bicyclo[4.1.0]heptan-3-yl)amino)-2-fluoro-N-(thiazol-2-yl)benzenesulfonamide formate]
- IC50 (hNav1.7 [2]): 664 nM
- IC50 (hNav1.7 [1]; [3]): 120 nM

SMILES: CN(C)[C@@H]1CC2C(C[C@H]1Nc1cc(F)c(S(=O)(=O)Nc3nccs3)cc1Cl)C2(F)F (stereo in doubt) [Example 208, 5-Chloro-4-(((1R,3R,4R,6S)-4-(dimethylamino)-7,7-difluorobicyclo[4.1.0]heptan-3-yl)amino)-2-fluoro-N-(thiazol-2-yl)benzenesulfonamide]
- IC50 (hNav1.7 [2]): 46.7 nM
- IC50 (hNav1.7 [1]; [3]): 6.12 nM

SMILES: CN(CCCF)[C@H]1CCCC[C@@H]1Nc1cc(F)c(S(=O)(=O)Nc2nccs2)cc1Cl [Example 135, 5-chloro-2-fluoro-4-(((1S,2S)-2-((3-fluoropropyl)(methyl)amino)cyclohexyl)amino)-N-(thiazol-2-yl)benzenesulfonamide]
- IC50 (hNav1.7 [2]): 313 nM
- IC50 (hNav1.7 [1]; [3]): 32.8 nM

SMILES: CN(C)[C@H]1C[C@@H](c2cccc(C(F)(F)F)c2)CC[C@@H]1Nc1cc(F)c(S(=O)(=O)Nc2ccncn2)cc1C1CC1 [Example 230, 5-Cyclopropyl-4-(((1S,2S,4S)-2-(dimethylamino)-4-(3-(trifluormethyl)phenyl)cyclohexyl)amino)-2-fluoro-N-(pyrimidin-4-yl)benzenesulfonamide formate]
- IC50 (hNav1.7 [2]): 0.627 nM
- IC50 (hNav1.7 [1]; [3]): 1.52 nM

SMILES: CN(C)[C@H]1C[C@@H]2[C@H](C[C@@H]1Nc1cc(F)c(S(=O)(=O)Nc3nccs3)cc1Cl)C2(Cl)Cl [Example 194, 5-Chloro-4-(((1S,3S,4S,6R)-7,7-dichloro-4-(dimethylamino)bicyclo[4.1.0]heptan-3-yl)amino)-2-fluoro-N-(thiazol-2-yl)benzenesulfonamide formate]
- IC50 (hNav1.7 [2]): 2000 nM
- IC50 (hNav1.7 [1]; [3]): 400 nM

SMILES: CN(C1CNC1)[C@H]1C[C@@H](C(F)(F)F)CC[C@@H]1Nc1cc(F)c(S(=O)(=O)Nc2cccc(F)n2)cc1Cl [Example 170, 4-(((1S,2S,4S)-2-(azetidin-3-yl(methyl)amino)-4-(trifluoromethyl)cyclohexyl)amino)-5-chloro-2-fluoro-N-(6-fluoropyridin-2-yl)benzenesulfonamide]
- IC50 (hNav1.7 [2]): 2.92 nM
- IC50 (hNav1.7 [1]; [3]): 3.68 nM

SMILES: CN(C)[C@H]1C[C@@H](c2cccc(C(F)(F)F)c2)CC[C@@H]1Nc1cc(F)c(S(=O)(=O)Nc2ccncn2)cc1Br [Example 227, 5-Bromo-4-(((1S,2S,4S)-2-(dimethylamino)-4-(3-(trifluoromethyl)phenyl)cyclohexyl)amino)-2-fluoro-N-(pyrimidin-4-yl)benzenesulfonamide]
- IC50 (hNav1.7 [2]): 0.69 nM
- IC50 (hNav1.7 [1]; [3]): 1.19 nM

SMILES: CN(C1CN(CC(F)(F)F)C1)[C@H]1CCCC[C@@H]1Nc1cc(F)c(S(=O)(=O)Nc2nccs2)cc1Cl [Example 175, 5-Chloro-2-fluoro-4-(((1S,2S)-2-(methyl(1-(2,2,2-trifluoroethyl)azetidin-3-yl)amino)cyclohexyl)amino)-N-(thiazol-2-yl)benzenesulfonamide]
- IC50 (hNav1.7 [2]): 316 nM
- IC50 (hNav1.7 [1]; [3]): 21.7 nM

SMILES: CN(C)[C@@H]1C[C@@H]2C[C@@H]2C[C@H]1Nc1cc(F)c(S(=O)(=O)Nc2nccs2)cc1Cl [Example 215, 5-Chloro-4-(((1R,3R,4R,6S)-4-(dimethylamino)bicyclo[4.1.0]heptan-3-yl)amino)-2-fluoro-N-(thiazol-2-yl)benzenesulfonamide]
- IC50 (hNav1.7 [2]): 2000 nM
- IC50 (hNav1.7 [1]; [3]): 286 nM
